We go through one compound from patent US20110218143A1, “COMPOSITIONS AND METHODS FOR TISSUE REPAIR” (UNIVERSITY OF FLORIDA RESEARCH FOUNDATION, priority 2007, published 2011).

In assay [1] the test system is cytokine production in mouse blood. Kind of assay: Cytokine/chemokine levels in blood serum (Millipore 21-Plex, Luminex). Type of assay: in vivo, C57BL6/J mice. The protocol:
Mice received either a placebo, celastrol (3.0 mg/kg), or 17-AAG (10 mg/kg) by intraperitoneal injection. Blood samples were taken from all groups of mice at 0, 1, 3, 6, 24, 48, and 72 hours after administration of the placebo, celastrol, or 17-AAG. The blood samples were analyzed for cytokine production, including the production of granulocyte-macrophage colony-stimulating factor (GM-CSF), interferon-gamma (IFN-γ), interleukin-10 (IL-10), interleukin-12 subunit beta (IL-12p40), interleukin-12 heterodimer (IL-12p70), interleukin-12 homodimer (IL-12p80), vascular endothelial growth factor (VEGF), tumor necrosis factor-alpha (TNF-α), keratinocyte derived chemokine (KC), RANTES (Regulated upon Activation, Normal T-cell Expressed, and Secreted; CCL5), monocyte chemotactic protein-1 (MCP 1), macrophage inflammatory protein (MIP1β; CCL4), interleukin-4 (IL-4), interleukin-3 (IL-3), interleukin-2 (IL-2), interleukin-1 beta (IL-1β), interleukin-1 alpha (IL-1α), interleukin-9 (IL-9), interleukin-13 (IL-13), interleukin-17 (IL-17), interleukin-6 (IL-6), and interleukin-5 (IL-5). Blood serum was analyzed using a commercially available kit (e.g., Mouse cytokine/chemokine panel: 21-Plex; Millipore). Blood serum (50 μl) was assayed in duplicate using a commercially available cytokine/chemokine detection kit from Millipore following the protocol given with the product information. The final measurement was performed using a commercially available detector (e.g., computer-operated Luminex 100 IS system) and the results were expressed as pg/ml blood serum sample. Levels of cytokines in blood were quantitated as a concentration of the total volume of the sample.

The test system of assay [2] is mice with DOX induced heart disease. The assay can be described thus: Survival in doxorubicin (DOX) induced heart disease. It counts as in vivo, C57BL6/J mice. The settings on record: DOX 20 mg/kg and celastrol 3 mg/kg; after 2 weeks; DOX with placebo 80% mortality. The protocol: The administration of doxorubicin (DOX; adriamycin) to induce cardiac damage is a well-known model of heart disease see for example, Rosenhoff et al., “Adriamycin-induced cardiac damage in the mouse: a small-animal model of cardiotoxicity.” J Natl Cancer Inst. July 1975; 55(1):191-4; and van der Vijgh et al., “Morphometric study of myocardial changes during doxorubicin-induced cardiomyopathy in mice.” Eur J Cancer Clin Oncol. October 1988; 24(10):1603-8. Doxorubicin was administered to C57BL6/J mice to induce heart damage. Groups of 13-14 C57BL6/J mice received either DOX (20 mg/kg) and a placebo, or DOX (20 mg/kg) and celastrol (3 mg/kg). Mice were examined after 2 weeks to determine survival (FIG. 13).

Setting [3] is: celastrol 3.0 mg/kg i.p., over the course of the experiment.
Where [4] appears, read: celastrol 3.0 mg/kg i.p., throughout the 72 hour time course.
[5] abbreviates: i.p. celastrol 3.0 mg/kg or 17-AAG 10 mg/kg, 72 hour time course.
Setting [6] is: i.p. celastrol 3.0 mg/kg or 17-AAG 10 mg/kg, sampled 0-72 h.
The mark [7] stands for this setting: i.p. celastrol 3.0 mg/kg or 17-AAG 10 mg/kg, sampled 0-72 h, vs placebo control.

SMILES strings stand for the structures. “Also recorded” adds a separate entry of the source. A value given as a limit tells only on which side of the number the result lay.

On to `CC1=C(O)C(=O)C=C2C1=CC=C1[C@@]2(C)CC[C@@]2(C)[C@@H]3C[C@](C)(C(=O)O)CC[C@]3(C)CC[C@]12C` [celastrol], for which the “level of GM-CSF compared to placebo control” value in assay [1] (celastrol 3.0 mg/kg i.p., 72 hour time course) was “elevated again between 24 and 48 hours; also recorded: elevated again 6 to 48 hours”. Besides, the “level of IL-9 compared to placebo control” value in assay [1] (celastrol 3.0 mg/kg i.p., after peak) is recorded as “remained slightly elevated up to 72 hours”. In assay [1] (setting [3]), the “level of IL-6 compared to placebo control” value was “not significantly different” and the “level of RANTES compared to placebo control” value is listed as “not significantly different”. Besides, in assay [1] (setting [4]), the “level of IL-2 compared to placebo control” value is reported as “slightly elevated” and the “level of VEGF compared to placebo control” value is “slightly elevated”. The “level of IL-1α compared to placebo control” value in assay [1] (celastrol 3.0 mg/kg i.p., throughout the experiment) is listed as “slightly decreased”. Moreover, the “level of IL-13 compared to placebo control” value in assay [1] (celastrol 3.0 mg/kg i.p., up to 48 hours post treatment, risen again by 72 hours) was “slightly elevated”. Also, the “level of IL-17 compared to placebo control” value in assay [1] (i.p. celastrol 3.0 mg/kg (throughout 72 hours) or 17-AAG 10 mg/kg (up to 48 hours)) is recorded as “slightly elevated”. Further, in assay [1] (setting [5]), the “level of IFN-γ compared to placebo control” value was “slightly elevated”, the “level of IL-5 compared to placebo control” value is “not significantly different” and the “level of IL-12p40 compared to placebo control” value was “slightly elevated”. Besides, in assay [1] (setting [6]), the “time by which GM-CSF (elevated pre treatment) declined to placebo control levels” value is ≤ 6 h, the “time by which IL-3 (slightly elevated pre treatment) declined to placebo control levels” value is ≤ 1 h, the “time by which IL-4 (slightly elevated pre treatment) declined to placebo control levels” value was ≤ 1 h and the “time by which MIP1β returned or declined to placebo control levels” value was ≤ 6 h. Further, the “time by which TNF-α (elevated pre treatment) declined to placebo control levels” value in assay [1] (setting [6]) was ≤ 6 h. In assay [1] (setting [7]), the “time of peak level of IL-9 post treatment” value is on record as “around 3 hours” and the “time of peak level of KC post treatment” value was “around 6 hours”. In addition, the survival in assay [2] was determined as 40%.
